These results are taken from publication PMC6958422 (Pharmaceuticals, 2019).

Data set [1] has as its target T1, hA1 AR (Homo sapiens, UniProt P30542).
T1 construct: expressed in transfected cells; host or cells: CHO cells
T1 sequence (P30542 1-326): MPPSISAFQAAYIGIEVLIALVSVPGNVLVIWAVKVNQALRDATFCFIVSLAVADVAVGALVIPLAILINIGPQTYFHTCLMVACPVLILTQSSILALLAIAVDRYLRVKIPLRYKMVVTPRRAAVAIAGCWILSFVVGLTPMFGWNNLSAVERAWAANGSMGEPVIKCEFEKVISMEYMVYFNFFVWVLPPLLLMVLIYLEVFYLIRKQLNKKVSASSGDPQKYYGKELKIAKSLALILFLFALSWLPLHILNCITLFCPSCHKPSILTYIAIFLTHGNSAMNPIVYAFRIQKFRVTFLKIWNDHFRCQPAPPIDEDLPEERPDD
Put plainly: Modulation of Forskolin-stimulated cAMP levels in hA1 CHO cells. Type of data set: cell-based. The conditions noted are these: Forskolin 5 µM; for Efficacy (modulation of Forskolin-stimulated cAMP, hA1 CHO cells): normalized to DPCPX (set at 100%); for EC50: means ± SEM of four experiments, read-out: EC50 (potency to increase Forskolin-stimulated cAMP levels, hA1 CHO cells). As to the method: (§1) The amino-3,5-dicyanopyridines 1–20 were tested for their affinity at hA1, hA2A, and hA3 ARs, stably transfected in Chinese Hamster Ovary (CHO) cells, and were also studied as hA2B agonists by evaluating their stimulatory effect on cAMP production in CHO cells, stably expressing the hA2B AR.
For membrane preparation, the culture medium was removed, and the cells were washed with phosphate-buffered saline and scraped off T75 flasks in ice-cold hypotonic buffer (5 mM Tris HCl, 1 mM EDTA, pH 7.4). The cell suspension was homogenized with a Polytron, centrifuged for 30 min at 40000 g at 4°C, and the resulting membrane pellet was used for competition binding experiments.
CHO cells transfected with hAR subtypes were washed with phosphate-buffered saline, detached with trypsin and centrifuged for 10 min at 200 g. […] At the end of the experiments, plates were read with the Perkin Elmer EnSight Multimode Plate Reader.

For data set [2], the target named is T2, hA3 AR (Homo sapiens, UniProt P0DMS8).
T2 construct: expressed in transfected cells; host or cells: CHO cells
T2 sequence (P0DMS8 1-318): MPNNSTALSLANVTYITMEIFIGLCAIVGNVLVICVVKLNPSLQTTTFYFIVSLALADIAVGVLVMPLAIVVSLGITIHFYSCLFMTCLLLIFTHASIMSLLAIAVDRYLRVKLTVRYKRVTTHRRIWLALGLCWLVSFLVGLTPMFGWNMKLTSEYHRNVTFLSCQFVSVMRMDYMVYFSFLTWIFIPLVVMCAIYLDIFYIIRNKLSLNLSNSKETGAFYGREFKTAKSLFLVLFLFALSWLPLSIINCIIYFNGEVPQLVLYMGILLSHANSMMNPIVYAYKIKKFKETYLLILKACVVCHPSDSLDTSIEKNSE
Description: [125I]AB-MECA competition binding to hA3 CHO cell membranes. The following applies: for Ki: hA3 CHO cells, means ± SEM; for inhibition at 1 µM: percentage of inhibition at 1µM. As to the method:
(§2) CHO cells transfected with hA1, hA2A, hA2B, and hA3 ARs were grown adherently and maintained in Dulbecco’s modified Eagle’s medium (Sigma-Aldrich, Milan, Italy) with nutrient mixture F12, containing 10% fetal calf serum, penicillin (100 U/mL), streptomycin (100 μg/mL), l-glutamine (2 mM) and geneticin (G418; 0.2 mg/mL) at 37°C in 5% CO2/95% air until the use in cAMP assays. For membrane preparation, the culture medium was removed, and the cells were washed with phosphate-buffered saline and scraped off T75 flasks in ice-cold hypotonic buffer (5 mM Tris HCl, 1 mM EDTA, pH 7.4). The cell suspension was homogenized with a Polytron, centrifuged for 30 min at 40000 g at 4°C, and the resulting membrane pellet was used for competition binding experiments.
(§3) All synthesized compounds have been tested for their affinity to hA1, hA2A, and hA3 ARs. Competition experiments to hA1 ARs were carried out incubating 1 nM [^3H]-8-cyclopentyl-1,3-dipropylxanthine ([^3H]-DPCPX) with membrane suspension (50 μg of protein/100 μL) and different concentrations of the examined compounds at 25°C for 90 min in 50 mM Tris HCl, pH 7.4. […] Inhibition experiments to hA2A ARs were performed incubating the radioligand [^3H]-ZM241385 (4-(2-[7-Amino-2-(2-furyl)[1,2,4]triazolo[2,3-a][1,3,5]triazin-5-ylamino]ethyl)phenol) (1 nM) with the membrane suspension (50 μg of protein/100 μL) and different concentrations of the examined compounds for 60 min at 4°C in 50 mM Tris HCl (pH 7.4), 10 mM MgCl2. Non-specific binding was determined in the presence of ZM241385 (1 μM) and was about 20% of the total binding. Competition binding experiments to A3 ARs were carried out incubating the membrane suspension (50 μg of protein/100 μL) with 0.5 nM [^125I]-N^6-(4-aminobenzyl)-N-methylcarboxamidoadenosine ([^125I]-ABMECA) in the presence of different concentration of the examined compounds for an incubation time of 120 min at 4°C in 50 mM Tris HCl (pH 7.4), 10 mM MgCl2, and 1 mM EDTA. Non-specific binding was defined as binding in the presence of 1μM ABMECA and was always < 10% of the total binding. Bound and free radioactivity were separated by filtering the assay mixture through Whatman GF/B glass fiber filters using a Brandel cell harvester (Brandel Instruments, Unterföhring, Germany). The filter bound radioactivity was counted by Packard Tri Carb 2810 TR scintillation counter (Perkin Elmer, Boston, MA, USA).
(§4) The protein concentration was determined according to a Bio-Rad method with bovine albumin as a standard reference. Inhibitory binding constant (Ki) values were calculated from those of IC50 according to Cheng & Prusoff equation Ki = IC50/(1+[C*]/KD*), where [C*] is the concentration of the radioligand and KD* its dissociation constant. Ki and IC50 values were calculated by non-linear regression analysis using the equation for a sigmoid concentration-response curve (Graph-PAD Prism, San Diego, CA, USA).

In data set [3] the target is T3, hA2B AR (Homo sapiens, UniProt P29275).
T3 construct: expressed in transfected cells; host or cells: CHO cells
T3 sequence (P29275 1-332): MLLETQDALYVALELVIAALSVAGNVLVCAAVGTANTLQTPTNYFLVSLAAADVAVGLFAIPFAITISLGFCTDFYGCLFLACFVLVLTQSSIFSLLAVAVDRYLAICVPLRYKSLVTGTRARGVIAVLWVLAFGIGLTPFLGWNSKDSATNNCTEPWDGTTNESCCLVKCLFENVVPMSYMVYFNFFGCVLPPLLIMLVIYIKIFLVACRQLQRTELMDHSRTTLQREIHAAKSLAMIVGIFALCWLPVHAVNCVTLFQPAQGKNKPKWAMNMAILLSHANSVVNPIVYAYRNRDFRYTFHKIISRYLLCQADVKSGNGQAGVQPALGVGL
Description: cAMP assay, stimulation of cAMP production in hA2B CHO cells (agonism). Type of data set: cell-based. The conditions noted are these: for Emax at 1 µM: CHO, compound at 1µM, in comparison with NECA (1µM = 100%), read-out: Efficacy hA2B (cAMP assays) (converted); for EC50: hA2B CHO cells, means ± SEM of four assays. How it is done:
as §1, §2
CHO cells transfected with hAR subtypes were washed with phosphate-buffered saline, detached with trypsin and centrifuged for 10 min at 200 g. Cells were seeded in 96-well white half-area microplate (Perkin Elmer, Boston, USA) in a stimulation buffer composed of Hank Balanced Salt Solution (Sigma-Aldrich, Milan, Italy), 5 mM HEPES, 0.5 mM Ro 20-1724, and 0.1% BSA. cAMP levels were then quantified by using the AlphaScreen cAMP Detection Kit (Perkin Elmer) following the manufacturer’s instructions. At the end of the experiments, plates were read with the Perkin Elmer EnSight Multimode Plate Reader.

The target of data set [4] is T4, hA2A AR (Homo sapiens, UniProt P29274).
T4 construct: expressed in transfected cells; host or cells: CHO cells
T4 sequence (P29274 whole entry): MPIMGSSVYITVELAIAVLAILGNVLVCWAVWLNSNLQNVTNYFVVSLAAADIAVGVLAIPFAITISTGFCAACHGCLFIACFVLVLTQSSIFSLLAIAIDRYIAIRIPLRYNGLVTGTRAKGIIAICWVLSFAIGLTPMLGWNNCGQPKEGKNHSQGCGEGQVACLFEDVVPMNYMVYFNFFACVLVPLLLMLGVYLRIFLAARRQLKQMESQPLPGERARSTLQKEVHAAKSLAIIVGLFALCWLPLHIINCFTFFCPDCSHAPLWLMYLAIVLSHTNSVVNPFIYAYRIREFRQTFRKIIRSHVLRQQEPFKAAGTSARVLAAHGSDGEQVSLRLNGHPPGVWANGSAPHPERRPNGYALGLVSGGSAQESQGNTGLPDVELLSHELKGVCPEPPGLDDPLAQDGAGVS
Description: [3H]ZM241385 competition binding to hA2A CHO cell membranes. The conditions noted are these: for Ki: [3H]ZM241385, hA2A CHO cells, means ± SEM; for I% hA2A: percentage of inhibition at 1µM, [3H]ZM241385. How it is done:
as §2, §3, §4

In data set [5] the target is T1, hA1 AR. Put plainly: [3H]DPCPX competition binding to hA1 CHO cell membranes. The conditions noted are these: for I% hA1: percentage of inhibition at 1µM, [3H]DPCPX. As to the method:
as §2, §3, §4

Data set [6] has as its target T3, hA2B AR. The following applies: in comparison with NECA; cited from earlier work.

For `CCCn1c(=O)c2[nH]c(C3CCCC3)nc2n(CCC)c1=O` [DPCPX, 8-Cyclopentyl-1,3-dipropylxanthine, reference compound], in data set [1], the “Efficacy (modulation of Forskolin-stimulated cAMP, hA1 CHO cells)” value came to 100 ± 9%.
With `CSc1ccc(-c2c(C#N)c(N)nc(SCc3ncc[nH]3)c2C#N)cc1` [Compound 11, 2-Amino-6-[(1H-imidazol-2-ylmethyl)sulfanyl]-4-[4-(methylsulfanyl)phenyl]pyridine-3,5-dicarbonitrile], the melting point is 257 to 259 °C (dec.). Moreover, the Ki in data set [2] was found to be 0.388 ± 0.029 µM. Besides, in data set [3], the Emax at 1 µM was 30% and it took 0.036 ± 0.003 µM to reach a half-maximal effect (EC50). Further, the affinity in data set [4] corresponds to a Ki of 0.227 ± 0.021 µM. In addition, in data set [1], the concentration for a half-maximal effect (EC50) worked out at 0.00887 ± 0.00064 µM and the “Efficacy (modulation of Forskolin-stimulated cAMP, hA1 CHO cells)” value is listed as 52 ± 4%. In data set [5], this compound returned a Ki of 0.00832 ± 0.00078 µM.
In turn, `C=C(C)COc1ccc(-c2c(C#N)c(N)nc(SCc3ncc[nH]3)c2C#N)cc1` [Compound 4, 2-Amino-6-[(1H-imidazol-2-ylmethyl)sulfanyl]-4-{4-[(2-methylprop-2-en-1-yl)oxy]phenyl} pyridine-3,5-dicarbonitrile] returned a melting point of 224 to 226 °C. Moreover, at 1 µM the inhibition in data set [2] was 8%. Also, in data set [3], the Emax at 1 µM was 14% and the EC50 is over 1 µM. In addition, the “I% hA2A” value in data set [4] stood at 1%. Besides, the Ki in data set [5] is 0.077 ± 0.006 µM.
For `N#Cc1c(N)nc(SCc2ncc[nH]2)c(C#N)c1-c1ccccc1` [LUF5833, 2-amino-6-[(1H-imidazol-2-ylmethyl)sulfanyl]-4-phenylpyridine-3,5-dicarbonitrile], the “Efficacy hA2B (cAMP assays)” value in data set [6] is 81%.
Turning to `N#Cc1c(N)nc(SCc2ncc[nH]2)c(C#N)c1-c1ccc(F)cc1` [Compound 8, 2-Amino-4-(4-fluorophenyl)-6-[(1H-imidazol-2-ylmethyl)sulfanyl]pyridine-3,5-dicarbonitrile], the melting point was 223 to 225 °C (dec.). The compound also returned a Ki in data set [2] of 0.41 ± 0.038 µM. In data set [3], the Emax at 1 µM is 76% and the EC50 amounted to 0.018 ± 0.002 µM. The affinity in data set [4] corresponds to a Ki of 0.139 ± 0.012 µM. In data set [1], the EC50 was 0.00134 ± 0.00011 µM and the “Efficacy (modulation of Forskolin-stimulated cAMP, hA1 CHO cells)” value was found to be 34 ± 3%. In data set [5], this compound registered a Ki of 0.00078 ± 8e-05 µM.
Regarding `C=CCOc1ccc(-c2c(C#N)c(N)nc(SCc3ncc[nH]3)c2C#N)cc1` [Compound 3, 2-Amino-6-[(1H-imidazol-2-ylmethyl)sulfanyl]-4-[4-(prop-2-en-1-yloxy)phenyl]pyridine-3,5-dicarbonitrile], the inhibition at 1 µM in data set [2] is 8%. For the same compound, in data set [3], the Emax at 1 µM was 56% and the half-maximal effective concentration (EC50) came out at 0.027 ± 0.003 µM. Moreover, the “I% hA2A” value in data set [4] worked out at 17%. Further, in data set [1], the EC50 is 0.0196 ± 0.0017 µM and the “Efficacy (modulation of Forskolin-stimulated cAMP, hA1 CHO cells)” value came to 39 ± 4%. This compound also yielded a Ki in data set [5] of 0.016 ± 0.002 µM.
As for `Cc1c(C#N)c(N)nc(SCc2ncc[nH]2)c1C#N` [Compound 13, 2-Amino-6-[(1H-imidazol-2-ylmethyl)sulfanyl]-4-methylpyridine-3,5-dicarbonitrile], the melting point is 267 to 269 °C (dec.). This compound also had a Ki in data set [2] of 0.51 ± 0.053 µM. In data set [3], the Emax at 1 µM is 1% and the EC50 was over 1 µM. Also, in data set [4], the affinity corresponds to a Ki of 0.331 ± 0.032 µM. In data set [5], the Ki stood at 0.074 ± 0.008 µM.
`N#Cc1c(N)nc(SCc2ncc[nH]2)c(C#N)c1-c1ccc(OCC2CCC2)cc1` [Compound 1, 2-Amino-4-[4-(cyclobutylmethoxy)phenyl]-6-[(1H-imidazol-2-ylmethyl)sulfanyl]pyridine-3,5-dicarbonitrile] showed a melting point of 214 to 216 °C. For the same compound, the inhibitory constant (Ki) in data set [2] was found to be 0.574 ± 0.046 µM. Further, in data set [3], the Emax at 1 µM was 12% and the EC50 was over 1 µM. For the same compound, in data set [4], the “I% hA2A” value is 4%. Further, the “I% hA1” value in data set [5] turned out to be 25%.
Turning to `N#Cc1c(N)nc(NCCO)c(C#N)c1-c1ccccc1` [Compound 15, 2-Amino-6-[(2-hydroxyethyl)amino]-4-phenylpyridine-3,5-dicarbonitrile], the melting point lay in the range of 230 to 231 °C. For the same compound, the inhibition at 1 µM in data set [2] is 1%. In data set [3], the Emax at 1 µM was 1% and the EC50 is over 1 µM. Moreover, the “I% hA2A” value in data set [4] was determined as 1%. Also, in data set [5], the Ki worked out at 0.943 ± 0.087 µM.
As for `N#Cc1c(N)nc(SCc2ncc[nH]2)c(C#N)c1Cc1ccccc1` [Compound 12, 2-Amino-4-benzyl-6-[(1H-imidazol-2-ylmethyl)sulfanyl]pyridine-3,5-dicarbonitrile], the melting point was 246 to 248 °C (dec.). In data set [2], this compound showed an inhibition at 1 µM of 1%. Moreover, in data set [3], the Emax at 1 µM is 44% and the EC50 is 0.26 ± 0.024 µM. For the same compound, the “I% hA2A” value in data set [4] is 8%. In addition, in data set [5], the “I% hA1” value is given as 31%.
